The record followed here is patent US20220323406A1, “METHODS AND COMPOSITIONS FOR DIFFERENTIATING STEM CELLS” (Massachusetts Institute of Technology, priority 2019, published 2022).

Common to all, as to details: primary screen
The test system of experiment [1] is ENR+CD organoids (ISC to Paneth cell differentiation). The experiment can be described thus: Primary screen: basal (non-stimulated) lysozyme secretion LYZ.NS, 2.5-D 384-well ENR+CD organoid differentiation. It is filed as cell-based, mouse. An excerpt:
(§1) High-throughput screening.

Experiment [2] shares this test system. Briefly: Primary screen: CCh-stimulated lysozyme secretion LYZ.S, 2.5-D 384-well ENR+CD organoid differentiation. It is filed as cell-based, mouse.
Excerpt: as §1

The subject of the next experiment is ENR+CD organoids. The experiment can be described thus: Primary screen: ATP (CellTiter-Glo 3D, CTG) cell number/viability, 2.5-D 384-well ENR+CD organoids.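 Also: compounds given at plating and again on day 3 over a 6-day differentiation from ENR+CV stem-cell-enriched precursors, ATP measured on day 6, plate median as control.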

`CC(=O)Nc1nc2c(Oc3cc(-c4ccc(C(F)(F)F)cc4)ncn3)cccc2s1` [AMG-517]: the Dose.FC.LYZ.NS in experiment [1] (dose 0.08 uM) was 0.020 log2 fold change; in experiment [1] (dose 0.40 uM), 0.060 log2 fold change; in experiment [1] (dose 2.00 uM), −0.006 log2 fold change; in experiment [1] (dose 10.00 uM) it was 0.031 log2 fold change. The “Z.LYZ.NS (standard z score)” value in experiment [1] (dose 0.08 uM) is recorded as 0.178; in experiment [1] (dose 0.40 uM), 0.522; in experiment [1] (dose 2.00 uM), −0.051; in experiment [1] (dose 10.00 uM) it was 0.267. The Dose.FC.LYZ.S is on record as 0.084 log2 fold change in experiment [2] (dose 0.08 uM), 0.060 log2 fold change in experiment [2] (dose 0.40 uM), 0.002 log2 fold change in experiment [2] (dose 2.00 uM) and 0.266 log2 fold change in experiment [2] (dose 10.00 uM). In addition, the Dose.FC.CTG in the experiment with ENR+CD organoids (dose 0.08 uM) was 0.161 log2 fold change; in the experiment on ENR+CD organoids (dose 0.40 uM), 0.113 log2 fold change; with ENR+CD organoids (dose 2.00 uM), 0.112 log2 fold change; with ENR+CD organoids (dose 10.00 uM), 0.056 log2 fold change.

`COc1cc(N2CCC(N3CCN(C)CC3)CC2)ccc1Nc1ncc(Cl)c(Nc2ccccc2P(C)(C)=O)n1` [AP26113]: the Dose.FC.LYZ.NS in experiment [1] (dose 0.08 uM) was −0.013 log2 fold change; in experiment [1] (dose 0.40 uM), −0.062 log2 fold change; in experiment [1] (dose 2.00 uM) it was −0.196 log2 fold change; in experiment [1] (dose 10.00 uM), −0.272 log2 fold change. The “Z.LYZ.NS (standard z score)” value is on record as −0.116 in experiment [1] (dose 0.08 uM), −0.541 in experiment [1] (dose 0.40 uM), −1.706 in experiment [1] (dose 2.00 uM) and −2.370 in experiment [1] (dose 10.00 uM). Further, the Dose.FC.LYZ.S in experiment [2] (dose 0.08 uM) is reported as 0.109 log2 fold change; in experiment [2] (dose 0.40 uM), −0.038 log2 fold change; in experiment [2] (dose 2.00 uM), −0.244 log2 fold change; in experiment [2] (dose 10.00 uM) it was −0.343 log2 fold change. In addition, the Dose.FC.CTG is recorded as −0.054 log2 fold change with ENR+CD organoids (dose 0.08 uM), 0.061 log2 fold change in the experiment on ENR+CD organoids (dose 0.40 uM), −0.558 log2 fold change in the experiment with ENR+CD organoids (dose 2.00 uM) and −1.680 log2 fold change in the experiment with ENR+CD organoids (dose 10.00 uM).

For `O=C1NC(=O)/C(=C/c2ccc(-c3ccc(F)cc3O)o2)S1` [AS-252424], the Dose.FC.LYZ.NS in experiment [1] (dose 0.08 uM) was 0.070 log2 fold change; in experiment [1] (dose 0.40 uM), −0.042 log2 fold change; in experiment [1] (dose 2.00 uM) it was −0.080 log2 fold change; in experiment [1] (dose 10.00 uM), −0.077 log2 fold change. The “Z.LYZ.NS (standard z score)” value in experiment [1] (dose 0.08 uM) was 0.609; in experiment [1] (dose 0.40 uM) it was −0.368; in experiment [1] (dose 2.00 uM) it was −0.695; in experiment [1] (dose 10.00 uM), −0.671. Also, the Dose.FC.LYZ.S in experiment [2] (dose 0.08 uM) was 0.072 log2 fold change; in experiment [2] (dose 0.40 uM), −0.008 log2 fold change; in experiment [2] (dose 2.00 uM) it was −0.074 log2 fold change; in experiment [2] (dose 10.00 uM), −0.022 log2 fold change. Further, the Dose.FC.CTG in the experiment on ENR+CD organoids (dose 0.08 uM) is listed as 0.139 log2 fold change; in the experiment with ENR+CD organoids (dose 0.40 uM), −0.074 log2 fold change; with ENR+CD organoids (dose 2.00 uM), −0.359 log2 fold change; in the experiment on ENR+CD organoids (dose 10.00 uM) it was −0.204 log2 fold change. The “Z.CTG (standard z score)” value with ENR+CD organoids (dose 0.08 uM) is reported as 0.333; in the experiment with ENR+CD organoids (dose 0.40 uM), −0.176; in the experiment with ENR+CD organoids (dose 2.00 uM), −0.858; with ENR+CD organoids (dose 10.00 uM) it was −0.487.

Regarding `Cc1cc2c(C(C)C)c(O)c(O)c(C=O)c2c(O)c1-c1c(C)cc2c(C(C)C)c(O)c(O)c(C=O)c2c1O` [AT101], the Dose.FC.LYZ.NS in experiment [1] (dose 0.08 uM) was −0.049 log2 fold change; in experiment [1] (dose 0.40 uM) it was −0.068 log2 fold change; in experiment [1] (dose 2.00 uM), −0.036 log2 fold change; in experiment [1] (dose 10.00 uM), −0.052 log2 fold change. Moreover, the “Z.LYZ.NS (standard z score)” value in experiment [1] (dose 0.08 uM) is on record as −0.426; in experiment [1] (dose 0.40 uM) it was −0.592; in experiment [1] (dose 2.00 uM), −0.311; in experiment [1] (dose 10.00 uM), −0.452. In addition, the Dose.FC.LYZ.S is given as 0.004 log2 fold change in experiment [2] (dose 0.08 uM), −0.013 log2 fold change in experiment [2] (dose 0.40 uM), −0.085 log2 fold change in experiment [2] (dose 2.00 uM) and −0.061 log2 fold change in experiment [2] (dose 10.00 uM). Further, the Dose.FC.CTG in the experiment on ENR+CD organoids (dose 0.08 uM) is listed as −0.198 log2 fold change; in the experiment on ENR+CD organoids (dose 0.40 uM) it was 0.019 log2 fold change; with ENR+CD organoids (dose 2.00 uM), −0.216 log2 fold change; in the experiment with ENR+CD organoids (dose 10.00 uM), −0.056 log2 fold change.

Turning to `CCNC(=O)c1noc(-c2cc(C(C)C)c(O)cc2O)c1-c1ccc(CN2CCOCC2)cc1` [AUY922 (NVP-AUY922)], the Dose.FC.LYZ.NS in experiment [1] (dose 0.08 uM) is −0.144 log2 fold change; in experiment [1] (dose 0.40 uM), −0.154 log2 fold change; in experiment [1] (dose 2.00 uM) it was −0.138 log2 fold change; in experiment [1] (dose 10.00 uM), −0.153 log2 fold change. Moreover, the “Z.LYZ.NS (standard z score)” value is −1.251 in experiment [1] (dose 0.08 uM), −1.343 in experiment [1] (dose 0.40 uM), −1.200 in experiment [1] (dose 2.00 uM) and −1.330 in experiment [1] (dose 10.00 uM). Moreover, the Dose.FC.LYZ.S is −0.209 log2 fold change in experiment [2] (dose 0.08 uM), −0.184 log2 fold change in experiment [2] (dose 0.40 uM), −0.216 log2 fold change in experiment [2] (dose 2.00 uM) and −0.214 log2 fold change in experiment [2] (dose 10.00 uM). The Dose.FC.CTG in the experiment with ENR+CD organoids (dose 0.08 uM) is −1.185 log2 fold change; with ENR+CD organoids (dose 0.40 uM) it was −1.343 log2 fold change; with ENR+CD organoids (dose 2.00 uM), −1.137 log2 fold change; with ENR+CD organoids (dose 10.00 uM) it was −1.270 log2 fold change. In addition, the “Z.CTG (standard z score)” value with ENR+CD organoids (dose 0.08 uM) is reported as −2.830; in the experiment with ENR+CD organoids (dose 0.40 uM) it was −3.208; in the experiment on ENR+CD organoids (dose 2.00 uM) it was −2.715; in the experiment on ENR+CD organoids (dose 10.00 uM), −3.032.

Consider `C=CC(=O)Nc1cccc(Nc2nc(Nc3ccc(OCCOC)cc3)ncc2F)c1` [AVL-292], for which the Dose.FC.LYZ.NS is on record as 0.095 log2 fold change in experiment [1] (dose 0.08 uM), 0.052 log2 fold change in experiment [1] (dose 0.40 uM), −0.112 log2 fold change in experiment [1] (dose 2.00 uM) and −0.213 log2 fold change in experiment [1] (dose 10.00 uM). The “Z.LYZ.NS (standard z score)” value in experiment [1] (dose 0.08 uM) is 0.831; in experiment [1] (dose 0.40 uM), 0.451; in experiment [1] (dose 2.00 uM) it was −0.979; in experiment [1] (dose 10.00 uM), −1.858. In addition, the Dose.FC.LYZ.S is listed as 0.235 log2 fold change in experiment [2] (dose 0.08 uM), 0.106 log2 fold change in experiment [2] (dose 0.40 uM), −0.206 log2 fold change in experiment [2] (dose 2.00 uM) and −0.376 log2 fold change in experiment [2] (dose 10.00 uM). Also, the Dose.FC.CTG in the experiment with ENR+CD organoids (dose 0.08 uM) is listed as 0.217 log2 fold change; in the experiment on ENR+CD organoids (dose 0.40 uM), 0.057 log2 fold change; in the experiment on ENR+CD organoids (dose 2.00 uM) it was −0.058 log2 fold change; in the experiment on ENR+CD organoids (dose 10.00 uM), −0.778 log2 fold change. Also, the “Z.CTG (standard z score)” value is 0.518 with ENR+CD organoids (dose 0.08 uM), 0.135 with ENR+CD organoids (dose 0.40 uM), −0.138 with ENR+CD organoids (dose 2.00 uM) and −1.859 in the experiment with ENR+CD organoids (dose 10.00 uM).
